Test results taken from US20240358731A1, “SUMO PATHWAY AS AN OXYGEN SENSOR RELEVANT TO THE PATHOPHYSIOLOGY OF PULMONARY ARTERY HYPERTENSION AND CARDIAC ARRHYTHMIA” (Northeastern University, priority 2023, published 2024).
“Also recorded” adds a separate entry of the source.

Assays:
[1] = test system: human pulmonary artery smooth muscle cells; experiment: Whole cell patch clamp of human pulmonary artery smooth muscle cells, ambient O2 vs acute hypoxia; format: cell-based; conditions: pretreatment with 100 nM
Description: FIGS. 10A-10B show whole cell patch clamp recording of human pulmonary artery smooth muscle cells. […] The decrease is statistically significant, *, P<0.05 by Students t-test.
The hPASMCs are in primary culture and were studies by whole cell patch clamp at ambient levels of oxygen (˜21% O2) and under acute hypoxia (2% O2). Cells were studied in quasi-physiological buffers with high external concentrations of potassium using recording protocols.

[2] = biological target: T1, SUMO activating enzyme (SAE) (Homo sapiens, UniProt Q9UBE0+Q9UBT2); conditions: cited from earlier work
T1 sequence (Q9UBE0 1-346): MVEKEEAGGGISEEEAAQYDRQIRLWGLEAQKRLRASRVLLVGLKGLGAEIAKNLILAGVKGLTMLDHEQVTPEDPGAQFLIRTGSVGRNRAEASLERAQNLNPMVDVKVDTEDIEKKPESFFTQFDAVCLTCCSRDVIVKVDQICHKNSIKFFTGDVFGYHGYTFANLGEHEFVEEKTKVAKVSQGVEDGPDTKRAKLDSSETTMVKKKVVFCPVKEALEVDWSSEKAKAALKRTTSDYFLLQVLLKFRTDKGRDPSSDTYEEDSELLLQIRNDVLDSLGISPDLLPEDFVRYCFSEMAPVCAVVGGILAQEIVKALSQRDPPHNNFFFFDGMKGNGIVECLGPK
T1 sequence (Q9UBT2 1-640): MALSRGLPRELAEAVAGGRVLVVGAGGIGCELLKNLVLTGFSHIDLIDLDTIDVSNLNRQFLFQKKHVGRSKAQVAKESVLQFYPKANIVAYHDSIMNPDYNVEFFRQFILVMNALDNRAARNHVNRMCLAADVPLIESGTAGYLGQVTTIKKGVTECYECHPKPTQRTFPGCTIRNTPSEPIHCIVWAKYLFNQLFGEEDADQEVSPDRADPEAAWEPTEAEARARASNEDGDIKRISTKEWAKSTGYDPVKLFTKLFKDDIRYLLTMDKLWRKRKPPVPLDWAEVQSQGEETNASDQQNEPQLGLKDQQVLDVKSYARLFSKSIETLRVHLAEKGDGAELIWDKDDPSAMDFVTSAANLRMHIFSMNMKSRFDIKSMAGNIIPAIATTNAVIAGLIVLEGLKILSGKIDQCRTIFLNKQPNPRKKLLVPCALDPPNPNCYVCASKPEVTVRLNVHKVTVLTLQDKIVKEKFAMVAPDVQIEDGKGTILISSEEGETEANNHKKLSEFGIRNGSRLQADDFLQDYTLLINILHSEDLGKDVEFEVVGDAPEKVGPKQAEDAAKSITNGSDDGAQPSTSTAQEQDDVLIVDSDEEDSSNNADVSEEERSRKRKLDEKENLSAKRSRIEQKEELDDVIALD

[3] = biological target: T2, Kir2.1 channels (Homo sapiens, UniProt P63252); experiment: Whole-cell patch-clamp of heterologous Kir2.1 channels in HEK293T cells under hypoxia; format: cell-based; conditions: agent in recording pipette (SENP1 2 μM)
T2 construct: expressed in transfected cells; host or cells: HEK293T
T2 sequence (P63252 1-427): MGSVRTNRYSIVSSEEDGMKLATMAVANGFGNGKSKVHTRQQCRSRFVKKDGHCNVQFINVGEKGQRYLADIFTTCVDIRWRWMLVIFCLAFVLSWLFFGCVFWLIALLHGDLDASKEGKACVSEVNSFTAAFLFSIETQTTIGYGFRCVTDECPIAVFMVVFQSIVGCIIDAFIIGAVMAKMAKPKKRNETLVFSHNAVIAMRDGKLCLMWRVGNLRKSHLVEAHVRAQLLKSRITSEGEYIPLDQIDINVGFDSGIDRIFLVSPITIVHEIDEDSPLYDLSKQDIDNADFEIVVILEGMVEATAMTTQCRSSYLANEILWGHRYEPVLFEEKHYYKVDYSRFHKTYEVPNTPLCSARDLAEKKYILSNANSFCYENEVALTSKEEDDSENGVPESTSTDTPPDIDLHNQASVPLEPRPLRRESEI
Procedure: To knockdown Kir2.1 expression, RVCMs were transduced with lentiviral particles carrying cGFP and shRNA targeting KCNJ2-mRNA for the channel. Kir2.1 knockdown cells (Kir2.1kd-CMs) were identified by expression of cGFP. Cells were studied with control pipette solution, or with pipette solutions containing purified SUMO1 (1 μM) or SENP1 (2 μM). Where indicated, the control pipette solution contained diC8 PIP2. Paired patch-clamp data were analyzed by Students t-test; ***, P<0.01. […] Kir2.1kd-CMs are identified by expression of GFP (inset, scale bar=10 μm). […] The arrow indicates the change in current-magnitude between exposure to ambient O2 and 2% O2 in the same cell. Right, Concentration-response curve showing that including diC8-PIP2 in the pipette opposes hypoxic-inhibition of IK1 in control RVCMs and RVCMs expressing the scrambled shRNA. The hypoxic-response is diminished in Kir2.1kd-CMs. Data are mean±s.d. for 7-8 cells per condition. […] Current inhibition is diminished when SENP1 is included in the recording pipette and is not observed when SUMO-insensitive Kir2.1-K49Q channels are studied. Data are mean±s.d. for 6 cells per condition.
Hypoxic-inhibition of IK1/Kir2.1 is reduced by diC8-PIP2 in a concentration-dependent manner. We have shown that adding the exogenous, soluble PIP2 analog diC8-PIP2 into the patch-pipette opposes hypoxic-inhibition of IK1 (FIG. 4). […]

In the case of `Cc1sc(C(=O)c2cncnc2N[C@@H]2C[C@H](COS(N)(=O)=O)[C@@H](O)C2)cc1[C@@H]1NCCc2ccc(Cl)cc21` [TAK981, Subasumstat], the “effect on hypoxia-induced change of hPASMC inward current” value ([1]; 2% O2) is given as “prevents hypoxia induced changes; also recorded: precludes the change in the current caused by acute hypoxia”, the “effect on initial current in ambient O2” value ([1]; ambient O2) is given as “does not alter the magnitude or the phenotype of the initial current” and the “SAE / SUMO E1 inhibition” value [2] is given as “nM-inhibitor”. For the same molecule, the selectivity [2] was “highly selective”.

B1: SENP1: purified deSUMOylating enzyme (SUMO specific protease) introduced via the recording pipette or expressed (protein, UniProt Q9P0U3 1-644, looked up)
Sentrin-specific protease 1: MDDIADRMRMDAGEVTLVNHNSVFKTHLLPQTGFPEDQLSLSDQQILSSRQGHLDRSFTCSTRSAAYNPSYYSDNPSSDSFLGSGDLRTFGQSANGQWRNSTPSSSSSLQKSRNSRSLYLETRKTSSGLSNSFAGKSNHHCHVSAYEKSFPIKPVPSPSWSGSCRRSLLSPKKTQRRHVSTAEETVQEEEREIYRQLLQMVTGKQFTIAKPTTHFPLHLSRCLSSSKNTLKDSLFKNGNSCASQIIGSDTSSSGSASILTNQEQLSHSVYSLSSYTPDVAFGSKDSGTLHHPHHHHSVPHQPDNLAASNTQSEGSDSVILLKVKDSQTPTPSSTFFQAELWIKELTSVYDSRARERLRQIEEQKALALQLQNQRLQEREHSVHDSVELHLRVPLEKEIPVTVVQETQKKGHKLTDSEDEFPEITEEMEKEIKNVFRNGNQDEVLSEAFRLTITRKDIQTLNHLNWLNDEIINFYMNMLMERSKEKGLPSVHAFNTFFFTKLKTAGYQAVKRWTKKVDVFSVDILLVPIHLGVHWCLAVVDFRKKNITYYDSMGGINNEACRILLQYLKQESIDKKRKEFDTNGWQLFSKKSQEIPQQMNGSDCGMFACKYADCITKDRPINFTQQHMPYFRKRMVWEILHRKLL
With B1 the “effect on hypoxic inhibition of Kir2.1 channels” value [3] was “ameliorated”.
